This note sets out measurements from ChEMBL document CHEMBL4622980, “Peptide Inhibitors of Bacterial Protein Synthesis with Broad Spectrum and SbmA-Independent Bactericidal Activity against Clinical Pathogens” (J Med Chem, 2020).

Activity calls are given as the source filed them. The calls are words filed in the database; no cut-off is given here.

The term MBC denotes the lowest tested concentration that kills the bacteria rather than only halting them. The term MIC denotes the lowest concentration found to suppress growth. Usually CC50 stands for the concentration at which the toxic effect on the cells reaches its halfway point. As usually defined, the MIC99 is the lowest concentration that inhibits either 99% of growth or 99% of the strains tested, depending on the study.

The subject of series [1] is Escherichia coli. Kind of series: Induction of membrane permeabilization in Escherichia coli BW25113 at 1 uM incubated for 30 mins by ONPG/beta-galactosidase assay. The format is functional, organism-based.
Series [2] concerns Escherichia coli. Kind of series: Bactericidal activity against Escherichia coli ATCC 25922 assessed as prevention visible bacterial growth incubated for 18 hrs. The format is functional. To be noted: ATCC 25922, 18 h.
Series [3] concerns Escherichia coli. The series is described as follows: Bactericidal activity against Escherichia coli BW25113 expressing delta sbmA mutation assessed as prevention visible bacterial growth incubated for 18 hrs. The format is functional. To be noted: BW25113, 18 h.
The subject of series [4] is Escherichia coli. Kind of series: Antibacterial activity against Escherichia coli ATCC 25922 assessed as prevention visible bacterial growth incubated for 18 hrs in presence of 10% (v/v) human serum in full MH medium. As to conditions: ATCC 25922, 18 h. The format is functional.
Series [5] in a line: Cytotoxicity in human MEC1 cells assessed as reduction in cell viability incubated for 20 hrs by MTT assay. The format is cell-based. (Tetrazolium assays rely on reduction of a dye to a coloured formazan, in cell work by metabolically active cells.)
The test system of series [6] is Acinetobacter baumannii. The series is described as follows: Antibacterial activity against Acinetobacter baumannii ATCC 19606 assessed as prevention visible bacterial growth incubated for 18 hrs. The series is classed as functional. As to conditions: ATCC 19606 = CIP 70.34 = JCM 6841, 18 h.
In series [7] the test system is Escherichia coli. The series is described as follows: Antibacterial activity against Escherichia coli clinical isolates assessed as prevention visible bacterial growth incubated for 18 hrs. The format is functional.
Series [8] relates to Klebsiella pneumoniae. The series is described as follows: Bactericidal activity against Klebsiella pneumoniae 700603 assessed as prevention visible bacterial growth incubated for 18 hrs. The series is classed as functional. As to conditions: Klebsiella pneumoniae, 700603, 18 h.
Series [9] concerns Pseudomonas aeruginosa. The series is described as follows: Bactericidal activity against Pseudomonas aeruginosa ATCC 27853 assessed as prevention visible bacterial growth incubated for 18 hrs. To be noted: ATCC 27853, 18 h. The format is functional.
For series [10], the system named is Staphylococcus aureus. Kind of series: Antibacterial activity against Staphylococcus aureus ATCC 25923 assessed as prevention visible bacterial growth incubated for 18 hrs. The format is functional. As to conditions: ATCC 25923, 18 h.
In series [11] the test system is Pseudomonas aeruginosa. Kind of series: Antibacterial activity against Pseudomonas aeruginosa ATCC 27853 assessed as prevention visible bacterial growth incubated for 18 hrs. The format is functional. To be noted: ATCC 27853, 18 h.
For series [12], the system named is Escherichia coli. Kind of series: Antibacterial activity against Escherichia coli ATCC 25922 assessed as prevention visible bacterial growth incubated for 18 hrs. The format is functional. As to conditions: ATCC 25922, 18 h.
The subject of series [13] is Escherichia coli. The series is described as follows: Induction of membrane permeabilization in Escherichia coli BW25113 at 1 to 2 uM incubated for 30 mins by ONPG/beta-galactosidase assay. The series is classed as functional, organism-based.
The test system of series [14] is Klebsiella pneumoniae. The series is described as follows: Antibacterial activity against Klebsiella pneumoniae 700603 assessed as prevention visible bacterial growth incubated for 18 hrs. The series is classed as functional. As to conditions: Klebsiella pneumoniae, 700603, 18 h.
Series [15] concerns Escherichia coli. The series is described as follows: Antibacterial activity against Escherichia coli BW25113 assessed as prevention visible bacterial growth incubated for 18 hrs. The format is functional. To be noted: BW25113, 18 h.
Series [16] relates to Escherichia coli. The series is described as follows: Bactericidal activity against Escherichia coli BW25113 assessed as prevention visible bacterial growth incubated for 18 hrs. The series is classed as functional. To be noted: BW25113, 18 h.
The subject of series [17] is Escherichia coli. Kind of series: Antibacterial activity against Escherichia coli BW25113 expressing delta sbmA mutation assessed as prevention visible bacterial growth incubated for 18 hrs. The format is functional. As to conditions: BW25113, 18 h.
The test system of series [18] is Acinetobacter baumannii. The series is described as follows: Bactericidal activity against Acinetobacter baumannii ATCC 19606 assessed as prevention visible bacterial growth incubated for 18 hrs. To be noted: ATCC 19606 = CIP 70.34 = JCM 6841, 18 h. The format is functional.
The subject of series [19] is Staphylococcus aureus. The series is described as follows: Bactericidal activity against Staphylococcus aureus ATCC 25923 assessed as prevention visible bacterial growth incubated for 18 hrs. To be noted: ATCC 25923, 18 h. The series is classed as functional.
Series [20] deals with Escherichia coli. Kind of series: Ratio of MBC for antibacterial activity against Escherichia coli BW25113 expressing delta sbmA mutation to MBC for antibacterial activity against wild type Escherichia coli BW25113. The format is functional.
Series [21] deals with Escherichia coli. Kind of series: Induction of membrane permeabilization in Escherichia coli BW25113 at 1 to 16 uM incubated for 30 mins by ONPG/beta-galactosidase assay. The series is classed as functional, organism-based.
Series [22] deals with Escherichia coli. Kind of series: Ratio of MIC for antibacterial activity against Escherichia coli BW25113 expressing delta sbmA mutation to MIC for antibacterial activity against wild type Escherichia coli BW25113. The format is functional.
Series [23] deals with Escherichia coli. Kind of series: Induction of membrane permeabilization in Escherichia coli BW25113 at 1 to 16 uM incubated for 30 mins by propidium iodide uptake based flow cytometry. The format is functional, organism-based.
Series [24] has as its system Escherichia coli. Kind of series: Inhibition of in-vitro transcription/translation in Escherichia coli lysates at 1 uM incubated for 1 hr by luciferase reporter gene assay relative to control. The series is classed as functional. For orientation: In a reporter assay the amount or activity of a reporter protein is the signal.
Series [25] deals with Escherichia coli. The series is described as follows: Induction of membrane permeabilization in Escherichia coli BW25113 at 8 to 16 uM incubated for 30 mins by ONPG/beta-galactosidase assay. The series is classed as functional, organism-based.
The test system of series [26] is Escherichia coli. Kind of series: Induction of membrane permeabilization in Escherichia coli BW25113 at 16 uM incubated for 30 mins by ONPG/beta-galactosidase assay relative to 1 uM colistin. The format is functional.
For series [27], the system named is Escherichia coli. Kind of series: Induction of membrane permeabilization in Escherichia coli BW25113 at 8 to 16 uM incubated for 30 mins by propidium iodide uptake based flow cytometry. The series is classed as functional, organism-based. Background: In flow cytometry, cells or beads pass a laser one at a time.
Series [28] deals with Escherichia coli. The series is described as follows: Antibacterial activity against Escherichia coli isolate EURL-VTEC C07 assessed as prevention visible bacterial growth incubated for 18 hrs. To be noted: isolate EURL-VTEC C07, 18 h. The series is classed as functional.
Series [29] relates to Escherichia coli. The series is described as follows: Induction of membrane permeabilization in Escherichia coli BW25113 at 4 uM incubated for 30 mins by propidium iodide uptake based flow cytometry. The format is functional, organism-based.
The subject of series [30] is Escherichia coli. The series is described as follows: Induction of membrane permeabilization in Escherichia coli BW25113 at 4 uM incubated for 30 mins by ONPG/beta-galactosidase assay. The format is functional, organism-based.

On to COLISTIN, for which the result in [1] was Active.
H-RRIRPRPPRLPRPRPR-OH: the MBC is 2 µM in series [2]; 64 µM in series [3]; 64 µM in series [8]; above 64 µM in series [9]; 4 µM in [16]; above 64 µM in [18]. For the same substance, the MBC in series [19] was above 64 µM. In series [4], the MIC amounted to 1 µM. Also, in series [5], the CC50 at 20 h was above 64 µM. For the same substance, the MIC99 in [6] is 32 µM; in [7] it was above 1 µM; in [10], above 64 µM; in [11] it was above 64 µM; in series [12], 1 µM; in series [14], 4 µM. The MIC99 was 2 to 8 µM in [15] and 16 µM in series [17]. Also, the result in series [13] was inactive.
Turning to H-RRIRPRPPRLPRPRWR-OH, the Ratio in series [20] and in [22] was 2 - 4 throughout. In addition, the MBC in [2] came to 2 µM; in series [3] it was 16 µM; in [8], 16 µM; in series [9], 32 µM; in series [16], 8 µM; in series [18], 24 µM. In addition, the MBC in series [19] was above 64 µM. In addition, the outcome in [21], in series [13] and in series [23] was inactive. The MIC in series [4] was 1.5 µM. In addition, in [5], the CC50 at 20 h was above 64 µM. Also, the MIC99 is 12 µM in [6]; above 1 µM in [7]; above 64 µM in [10]; above 64 µM in series [11]; 1 µM in series [12]; 2 µM in [14]. Further, the MIC99 in [15] was 1 to 4 µM; in series [17] it was 4 µM. For the same substance, the inhibition entry in series [24] is “Active”.
As for H-WRIRPRPPRLPRPRPR-OH, the MBC is 2 µM in series [2]; 32 µM in series [3]; 64 µM in series [8]; above 64 µM in series [9]; 1 µM in [16]; 64 µM in [18]. Moreover, the minimal bactericidal concentration (MBC) in [19] was above 64 µM. The result in series [21], in series [13] and in [23] was inactive. Moreover, the MIC in series [4] turned out to be 1 µM. The CC50 at 20 h in series [5] is above 64 µM. Besides, the MIC99 in [6] was 32 µM; in series [7], above 1 µM; in series [10], above 64 µM; in [11], above 64 µM; in [12], 1 µM; in series [14], 16 µM. Moreover, the MIC99 was 1 to 2 µM in [15] and 12 µM in series [17]. The inhibition result in [24] is “Active”.
For H-WRIRPRPPRLPRWRPR-OH, the MBC in [2] is 2 µM; in [3], 32 µM; in series [8], 32 µM; in [9], above 64 µM; in [16] it was 4 µM; in [18], 64 µM. Further, the MBC in [19] was above 64 µM. For the same substance, the MIC in series [4] was 2 µM. For the same substance, the 50% cytotoxic concentration (CC50) at 20 h in series [5] was above 64 µM. Moreover, the MIC99 in series [6] was 32 µM; in series [7] it was above 1 µM; in [10], above 64 µM; in [11], above 64 µM; in series [12], 1.5 µM; in series [14], 8 µM. Moreover, the MIC99 is 2 µM in series [15] and 16 µM in series [17]. Besides, in series [13], the result was inactive. Besides, the inhibition entry in [24] was “Active”.
H-WRIRRRPPRLPRPRWR-OH: the Ratio in series [20] and in series [22] was 2 - 4 throughout. Besides, the MBC in [2] was found to be 2 µM; in series [3], 4 µM; in series [8] it was 32 µM; in series [9], 64 µM; in series [16] it was 8 µM; in series [18] it was 32 µM. For the same substance, the MBC in [19] is above 64 µM. In series [4], the MIC amounted to 6 µM. In series [5], the CC50 at 20 h is above 64 µM. In addition, the outcome in series [25] and in series [27] was Active. The MIC99 in [6] is 32 µM; in series [7] it was above 1 µM; in series [10], 32 µM; in series [11] it was 64 µM; in [12] it was 1 µM; in [14] it was 4 µM. The MIC99 in [15] came out at 1 µM; in series [17], 3 µM. This substance also showed an Activity in [26] of 30%. Further, the result in series [13] was inactive. Moreover, in [24], the inhibition result was “Active”.
As for H-WRIRRRWPRLPRPRWR-OH, the Ratio in [20] and in series [22] was 2 - 4 in each case. In addition, the MBC in [2] was 2 µM; in series [3], 4 µM; in [8], 8 µM; in series [9], above 64 µM; in series [16], 4 µM; in series [18], 8 µM. In addition, the MBC in series [19] was above 64 µM. The MIC in series [4] was determined as 3 µM. Further, in series [5], the CC50 at 20 h is above 64 µM. In addition, the outcome in [25], in series [29], in series [30] and in series [27] was Active. Further, the MIC99 in [6] is 4 µM; in [7] it was above 1 µM; in [10], 12 µM; in series [28], 2 µM; in [11] it was 32 µM; in [12], 1 µM. Besides, the MIC99 amounted to 2 µM in series [14], 2 µM in series [15] and 4 µM in [17]. The Activity in series [26] is 30%. Moreover, in series [13], the outcome was inactive. In addition, the inhibition entry in series [24] was “Active”.
